Columns and labels:
Transgenic mice = experiment: Aorta surface covered by atherosclerotic lesions, en face ORO staining; format: in vivo; conditions: 28 weeks
From the text: The surface of aorta covered with atherosclerotic lesions was quantified as described by Palinski et al. (1994) and Zampolli et al. (2006). Non-fasted animals were anesthetized with pentobarbital injected intraperitoneally. Next, maximum volume of blood was collected from the heart by direct cardiac puncture of the right ventricle. Blood was kept for further analyses as described above. The heart and arterial tree were then flushed with a heparin-containing cardioplegic solution via a cannula inserted into the left ventricle, followed by perfusion with formalin for 5 minutes. The arterial tree was exposed, branching arteries were removed and entire aorta was dissected from the aortic arch down to the iliac bifurcation. Using a stereomicroscope, aortas were cleaned from periadventitial tissue; remaining branches were cut off and opened longitudinally by incision following the inner curvature of the aortic arch and the ventral side of the aorta. Additional incisions followed the outer curvature of the arch to the subclavian artery. An Oil Red 0 (ORO) staining solution was prepared by diluting the ORO stock solution (5 mg/ml in 2-propanol; Sigma Aldrich) with deionized water (6:4). Dissected aortas were stained for 30 minutes with ORO, followed by rinsing with 2-propanol and deionized water. Stained aortas were then laid flat on the microscope slide with endothelial side facing upwards. The tissues were mounted with aqueous mounting agent (Aquatex®, Merck Chemicals, Darmstadt, Germany) and covered with glass slide cover slip.
Digital images of the slides were obtained through the 48-bit color scanner (Canoscan 9950F, Canon) with 1200 DPI resolution. The images were captured in Photoshop CS3 Extended software and converted to gray scale. After further processing, including sharpness, contrast and brightness adjustments, and the image of aorta was printed out in two copies. […] Images of a hand-drawn aorta outlines and regions (patches) matching atherosclerotic lesions were then scanned and re-imported into Adobe Photoshop and the images were then evaluated obtain the percent of aorta covered with atherosclerotic lesions. Briefly, in the digitized image of entire aorta and the image of the patches corresponding to lesions, red outlined areas were converted to black and the blackness values for all pixels in the image were summed and counted.
Transgenic mice were randomized into 5 dietary regiments: (1) Normal chow (NC), (2) NC+0.2% cholesterol oleate (CLE), (3) Western type diet (WD) containing 0.2% cholesterol, (4) WD containing 0.2% cholesterol and 0.2% CLE, (5) WD containing 0.1% cholesterol and 0.1% CLE. The extent of the lesions was quantified as percent area positive to lipid staining by ORO in the entire aorta after 28 weeks of experimental treatments.

CaCo-2 cells [1] = experiment: Uptake of micellar cholesteryl oleate by CaCo-2 cells; format: in vitro ADME, Human; conditions: micelles containing [1,2-3H] cholesteryl oleate vs labeled cholesterol, FIG. 1B
From the text: (§1) Human colon adenocarcinoma (Caco-2) cells were kindly provided by J T Rasmussen (Department of Molecular Biology Aarhus University C. F. M0llers Alle 3DK-8000 Aarhus CDenmark). Cells were routinely maintained in NUNCLON flasks in Dulbecco's […] (DMEM) supplemented with 4.5g/1 glucose. 10% heat-inactivated fetal bovine serum (FBS), 1% nonessential amino acid (NEAA), and 1% antibiotics (complete medium), as previously described (Hidalgo I J. Raub T J. Borchardt R T, Gastroenterology, (1989) ar;96(3):736-49). Once the flasks reached 80% confiuency, the cells were dispersed and seeded into 24-well plates at density 10^5 cells/well in DMEM supplemented with 10% FBS and 1% NEAA. […]
(§2) Micelles were prepared according to the method described by Kirana (Kirana C. Rogers P F, Bennett L E, Abevwardena M Y, Patten G S, J Agric Food Chem. (2005) Jun. 1; 53(1 1):4623-7) with slight modifications. […] The particle size of micelles was determined by dynamic light scattering (DLS) with use of the Malvern Zetasizer Nano series machine using latex 60 nm Nanosphere Size Standard.
Differentiated Caco-2 cells were incubated at 37° C. for 1, 3 and 5 hours with micellar solutions containing ^3H-labelled cholesteryl oleate according to the method described above. […] For quantitative analysis ^14C-cholesterol was used as an external standard to correct for the extraction efficiency. […]

CaCo-2 cells [2] = experiment: Uptake of micellar cholesterol by CaCo-2 cells with or without unlabeled cholesteryl oleate; format: cell-based, Human; conditions: CaCo-2 monolayers, 45 min at 37° C., [1,2-3H] cholesterol micelles with or without unlabeled cholesteryl oleate; p<0.001; FIG. 1A
From the text: as §1, §2
Monolayers were incubated at 37° C. for 45 min in micellar solutions containing [1,2-^3H] cholesterol with or without unlabeled cholesteryl oleate. […] The cells were analyzed as described above. […]

[3] = system: wild type male mice (C57BL/6J); experiment: Intestinal absorption of cholesterol in mice, plasma dual isotope ratio method, with added cholesteryl oleate; format: in vivo; conditions: oral bolus [14C]-cholesterol + unlabeled cholesteryl oleate (molar ratio 1:1) in skimmed milk, plasma after three days; p<0.05; FIG. 2A
Protocol: The net intestinal absorption of cholesterol and cholesteryl esters was measured using the plasma dual isotope ratio method described in Wang et al (Journal of Lipid Research, [2003] 44, 1042-1059). This method is based on the simultaneous intragastric (IG) and intravenous (IV) administration of […], and measurement of plasma cholesterol isotope ratios at a set point in time. By definition, the […] corresponds to “100% absorption”, whereas the [^3H]-cholesterol found in the blood reflects the absorption by the gastrointestinal tract. The method allows correction for post-absorptive cholesterol metabolism and for colonic handling of the malabsorbed labelled cholesterol by […] Fifteen wild type male mice (C57BL/6J), age of 5 weeks were randomly assigned into 3 groups. An amount of 2.5 μCi of [^3H]-cholesterol was dissolved in 100 μl of phosphate buffered saline (PBS) and injected into the tail vein of non fasted and not-anesthetized animals. The animal were then given an oral bolus (IG) dose of either [^14C]-cholesterol, [^14C]-cholesterol+unlabeled cholesteryl oleate (molar ratio 1:1) or [^14C]-cholesteryl oleate dissolved in skimmed milk. […] The percent of cholesterol absorption in plasma was calculated using (1).

[4] = system: wild type male mice (C57BL/6J); experiment: Intestinal absorption of cholesteryl oleate in mice, plasma dual isotope ratio method; format: in vivo; conditions: oral bolus [14C]-cholesteryl oleate in skimmed milk, plasma after three days; p<0.001; FIG. 2B
Protocol: The net intestinal absorption of cholesterol and cholesteryl esters was measured using the plasma dual isotope ratio method described in Wang et al (Journal of Lipid Research, [2003] 44, 1042-1059). This method is based on the simultaneous intragastric (IG) and intravenous (IV) administration of [^3H] -cholesterol and [^14C] -cholesterol, respectively, and measurement of plasma cholesterol isotope ratios at a set point in time. By definition, the IV [^14C]-cholesterol dose corresponds to “100% absorption”, whereas the [^3H]-cholesterol found in the blood reflects the absorption by the gastrointestinal tract. The method allows correction for post-absorptive cholesterol metabolism and for colonic handling of the malabsorbed labelled cholesterol by defining Fifteen wild type male mice (C57BL/6J), age of 5 weeks were randomly assigned into 3 groups. An amount of 2.5 μCi of [^3H]-cholesterol was dissolved in 100 μl of phosphate buffered saline (PBS) and injected into the tail vein of non fasted and not-anesthetized animals. The animal were then given an oral bolus (IG) dose of either [^14C]-cholesterol, [^14C]-cholesterol+unlabeled cholesteryl oleate (molar ratio 1:1) or [^14C]-cholesteryl oleate dissolved in skimmed milk. […] The percent of cholesterol absorption in plasma was calculated using (1).

CCCCCCCC/C=C\CCCCCCCC(=O)O[C@H]1CC[C@@]2(C)C(=CC[C@H]3[C@@H]4CC[C@H]([C@H](C)CCCC(C)C)[C@@]4(C)CC[C@@H]32)C1 [cholesteryl oleate]
effect on atherosclerotic lesions in Western type diet (Transgenic mice; WD vs WD+0.2% CLE and WD+0.1% CLE, FIGS. 3 and 4): lowered atherosclerotic lesions | rate of atherosclerosis, WD+0.2% CLE compared with WD+0.1% CLE (Transgenic mice; mice fed WD+0.2% CLE): higher rates of atherosclerosis than mice fed with WD+0.1% CLE | total plaque area (percent area positive to ORO in the entire aorta) (Transgenic mice; normal chow (NC)+0.2% CLE): 1.2±0.9% | difference in plaque formation between NC and NC+0.2% CLE (Transgenic mice; normal chow): no difference between those two treatments | fold less labeled sterol in cells incubated with cholesteryl oleate micelles compared to cholesterol micelles (CaCo-2 cells [1]): approximately 2 fold | more cholesterol accumulated by cells incubated with cholesterol micelles alone compared to micelles containing both cholesterol and cholesteryl oleate (CaCo-2 cells [2]): 30% | reduction in cholesterol adsorption compared to [14C]-cholesterol treated mice [3]: 12% | reduction in cholesterol uptake compared to mice treated with [14C]-cholesterol [4]: 50%
